≈ marks a conversion by molar mass, not a printed value.

For the first series, the system named is seven cancer cell lines (293, A549, Colo205, SK-HEP1, PC-3, PANC-1, AGS). In words: MTT cytotoxicity, overall statement for the seven cancer cell lines. To be noted: all seven cell lines, 48 hours. Type of series: cell-based, human. The procedure: (§1) In the invention, the cytotoxic effect was evaluated by the viability of cancer/tumor cells measured by the MTT assay, in several cancer cell lines, including the cell lines 293, A549, Colo205, SK-HEP1, PC-3, PANC-1, and AGS.
(§2) The compounds as tested were dissolved in DMSO (100 mg/mL), along with Doxorubicin (Dox), taken as a benchmark control, and the in vitro cytotoxicity in cancer cell lines were tested from 60 or 100 μg/mL with three-fold serial dilutions, and the 50% cytotoxic concentration (CC50) of test articles was determined by MTT assay.
(§3) Seven cancer cell lines were used in this example, including 293 (human embryonic kidney cells 293), A549 (human non-small cell lung cancer cells), Colo205 (human colon adenocarcinoma cells), SK-HEP1 (human hepatic cancer cells), PC-3 (human prostate carcinoma), PANC-1 (human pancreatic epithelioid carcinoma), and AGS (human gastric adenocarcinoma cells), cultured in the media and indicated as the table above. Briefly, cells seeded in 96-well plates were treated for 48 hours with the compounds as tested and the solvent (0.1% DMSO) as the vehicle control, respectively. Cell viability was determined by the MTT method, and the CC50 values were calculated using GraFit (Version 7, Erithacus Software Ltd., Horley, UK) and recorded.
For `C=C1C(=O)O[C@H]2/C=C(\C)C[C@@H]3C=C(CCC4OC4(C)CC[C@H]12)C(=O)O3` (stereo partly drawn) [Ova-Oxy], the “cytotoxicity (result in words)” value is recorded as “exhibit cytotoxic effects in all of the seven cancer cell lines”.

Regarding `C/C1=C\CCC2=C[C@@H](C/C(C)=C/[C@@H]3OC(=O)C(CSCCO)[C@H]3CC1)OC2=O` (stereo partly drawn) [Ova-ST2], the “cytotoxicity (result in words)” value was “did not exhibit the cytotoxicity”.

Another series concerns A549 (human non-small cell lung cancer cells). Briefly: MTT cytotoxicity assay in A549 cells. Type of series: cell-based. The following applies: 48 hours treatment, read-out: CC50 (50% cytotoxic concentration). On the procedure:
as §1, §2, §3
(In general: Formazan colour is commonly taken as a measure of viable cells.)
Turning to `C=C1C(=O)O[C@H]2/C=C(\C)C[C@@H]3C=C(CC/C=C(\C)CC[C@H]12)C(=O)O3` [AR100-DS1, ovatodiolide], the CC50 was 29.6 ± 0.4 µg/mL (≈ 90.1 µM).

For `COc1cccc2c1C(=O)c1c(O)c3c(c(O)c1C2=O)C[C@@](O)(C(=O)CO)C[C@@H]3O[C@H]1C[C@H](N)[C@H](O)[C@H](C)O1` [Dox, Doxorubicin], the CC50 was over 10 µg/mL.

On to `C=C1C(=O)O[C@H]2/C=C(\C)C[C@@H]3C=C(CCC4OC4(C)CC[C@H]12)C(=O)O3` (stereo partly drawn) [Ova-Oxy], for which the CC50 amounted to 23 ± 4.7 µg/mL (≈ 66.8 µM).

Consider `C/C1=C\CCC2=C[C@@H](C/C(C)=C/[C@@H]3OC(=O)C(CSCCO)[C@H]3CC1)OC2=O` (stereo partly drawn) [Ova-ST2], for which the CC50 was over 100 µg/mL.

A further series deals with PC-3 (human prostate carcinoma). In words: MTT cytotoxicity assay in PC-3 cells. Type of series: cell-based. The following applies: 48 hours treatment, read-out: CC50 (50% cytotoxic concentration). On the procedure: as §1, §2, §3
For `C=C1C(=O)O[C@H]2/C=C(\C)C[C@@H]3C=C(CC/C=C(\C)CC[C@H]12)C(=O)O3` [AR100-DS1, ovatodiolide], the CC50 amounted to 17.8 ± 0.2 µg/mL (≈ 54.2 µM).

Take `COc1cccc2c1C(=O)c1c(O)c3c(c(O)c1C2=O)C[C@@](O)(C(=O)CO)C[C@@H]3O[C@H]1C[C@H](N)[C@H](O)[C@H](C)O1` [Dox, Doxorubicin]: the CC50 was 10.3 ± 1.5 µg/mL (≈ 19 µM).

Take `C=C1C(=O)O[C@H]2/C=C(\C)C[C@@H]3C=C(CCC4OC4(C)CC[C@H]12)C(=O)O3` (stereo partly drawn) [Ova-Oxy]: the CC50 came out at 12.3 ± 5.4 µg/mL (≈ 35.7 µM).

Turning to `C/C1=C\CCC2=C[C@@H](C/C(C)=C/[C@@H]3OC(=O)C(CSCCO)[C@H]3CC1)OC2=O` (stereo partly drawn) [Ova-ST2], the CC50 is over 100 µg/mL.

Another series relates to 293 (human embryonic kidney cells 293). Briefly: MTT cytotoxicity assay in 293 cells. The series is classed as cell-based. The following applies: HEK293, 48 hours treatment, read-out: CC50 (50% cytotoxic concentration). On the procedure:
as §1, §2, §3
In the case of `C=C1C(=O)O[C@H]2/C=C(\C)C[C@@H]3C=C(CC/C=C(\C)CC[C@H]12)C(=O)O3` [AR100-DS1, ovatodiolide], the CC50 stood at 25.7 ± 2.5 µg/mL (≈ 78.3 µM).

Turning to `COc1cccc2c1C(=O)c1c(O)c3c(c(O)c1C2=O)C[C@@](O)(C(=O)CO)C[C@@H]3O[C@H]1C[C@H](N)[C@H](O)[C@H](C)O1` [Dox, Doxorubicin], the CC50 is over 10 µg/mL.

Regarding `C=C1C(=O)O[C@H]2/C=C(\C)C[C@@H]3C=C(CCC4OC4(C)CC[C@H]12)C(=O)O3` (stereo partly drawn) [Ova-Oxy], the CC50 worked out at 22.5 ± 0.5 µg/mL (≈ 65.3 µM).

Turning to `C/C1=C\CCC2=C[C@@H](C/C(C)=C/[C@@H]3OC(=O)C(CSCCO)[C@H]3CC1)OC2=O` (stereo partly drawn) [Ova-ST2], the CC50 is over 100 µg/mL.

A further series deals with AGS (human gastric adenocarcinoma cells). In words: MTT cytotoxicity assay in AGS cells. Type of series: cell-based. To be noted: 48 hours treatment, read-out: CC50 (50% cytotoxic concentration). The procedure: as §1, §2, §3
Turning to `C=C1C(=O)O[C@H]2/C=C(\C)C[C@@H]3C=C(CC/C=C(\C)CC[C@H]12)C(=O)O3` [AR100-DS1, ovatodiolide], the CC50 came to 13 ± 5.1 µg/mL (≈ 39.6 µM).

Regarding `COc1cccc2c1C(=O)c1c(O)c3c(c(O)c1C2=O)C[C@@](O)(C(=O)CO)C[C@@H]3O[C@H]1C[C@H](N)[C@H](O)[C@H](C)O1` [Dox, Doxorubicin], the CC50 worked out at 0.3 ± 0.1 µg/mL (≈ 0.552 µM).

Take `C=C1C(=O)O[C@H]2/C=C(\C)C[C@@H]3C=C(CCC4OC4(C)CC[C@H]12)C(=O)O3` (stereo partly drawn) [Ova-Oxy]: the CC50 was found to be 9.1 ± 0.9 µg/mL (≈ 26.4 µM).

Turning to `C/C1=C\CCC2=C[C@@H](C/C(C)=C/[C@@H]3OC(=O)C(CSCCO)[C@H]3CC1)OC2=O` (stereo partly drawn) [Ova-ST2], the CC50 is over 100 µg/mL.

For the next series, the system named is SK-HEP1 (human hepatic cancer cells). In words: MTT cytotoxicity assay in SK-HEP1 cells. The series is classed as cell-based. The following applies: 48 hours treatment, read-out: CC50 (50% cytotoxic concentration). The procedure: as §1, §2, §3
On to `C=C1C(=O)O[C@H]2/C=C(\C)C[C@@H]3C=C(CC/C=C(\C)CC[C@H]12)C(=O)O3` [AR100-DS1, ovatodiolide], for which the CC50 was determined as 49.9 ± 5.2 µg/mL (≈ 152 µM).

On to `COc1cccc2c1C(=O)c1c(O)c3c(c(O)c1C2=O)C[C@@](O)(C(=O)CO)C[C@@H]3O[C@H]1C[C@H](N)[C@H](O)[C@H](C)O1` [Dox, Doxorubicin], for which the CC50 was found to be 9.8 ± 0.2 µg/mL (≈ 18 µM).

`C=C1C(=O)O[C@H]2/C=C(\C)C[C@@H]3C=C(CCC4OC4(C)CC[C@H]12)C(=O)O3` (stereo partly drawn) [Ova-Oxy]: the CC50 was found to be 45.2 ± 3.2 µg/mL (≈ 131 µM).

Take `C/C1=C\CCC2=C[C@@H](C/C(C)=C/[C@@H]3OC(=O)C(CSCCO)[C@H]3CC1)OC2=O` (stereo partly drawn) [Ova-ST2]: the CC50 was over 100 µg/mL.

The next series deals with Colo205 (human colon adenocarcinoma cells). In words: MTT cytotoxicity assay in Colo205 cells. Type of series: cell-based. To be noted: COLO 205, 48 hours treatment, read-out: CC50 (50% cytotoxic concentration). On the procedure: as §1, §2, §3
With `C=C1C(=O)O[C@H]2/C=C(\C)C[C@@H]3C=C(CC/C=C(\C)CC[C@H]12)C(=O)O3` [AR100-DS1, ovatodiolide], the CC50 worked out at 41.7 ± 4.5 µg/mL (≈ 127 µM).

Take `COc1cccc2c1C(=O)c1c(O)c3c(c(O)c1C2=O)C[C@@](O)(C(=O)CO)C[C@@H]3O[C@H]1C[C@H](N)[C@H](O)[C@H](C)O1` [Dox, Doxorubicin]: the CC50 is 8.7 ± 0.6 µg/mL (≈ 16 µM).

Take `C=C1C(=O)O[C@H]2/C=C(\C)C[C@@H]3C=C(CCC4OC4(C)CC[C@H]12)C(=O)O3` (stereo partly drawn) [Ova-Oxy]: the CC50 turned out to be 17 ± 0.2 µg/mL (≈ 49.4 µM).

Take `C/C1=C\CCC2=C[C@@H](C/C(C)=C/[C@@H]3OC(=O)C(CSCCO)[C@H]3CC1)OC2=O` (stereo partly drawn) [Ova-ST2]: the CC50 is over 100 µg/mL.

Another series concerns PANC-1 (human pancreatic epithelioid carcinoma). Briefly: MTT cytotoxicity assay in PANC-1 cells. Type of series: cell-based. To be noted: 48 hours treatment, read-out: CC50 (50% cytotoxic concentration). On the procedure: as §1, §2, §3
Turning to `C=C1C(=O)O[C@H]2/C=C(\C)C[C@@H]3C=C(CC/C=C(\C)CC[C@H]12)C(=O)O3` [AR100-DS1, ovatodiolide], the CC50 was 40.2 ± 3.9 µg/mL (≈ 122 µM).

In the case of `COc1cccc2c1C(=O)c1c(O)c3c(c(O)c1C2=O)C[C@@](O)(C(=O)CO)C[C@@H]3O[C@H]1C[C@H](N)[C@H](O)[C@H](C)O1` [Dox, Doxorubicin], the CC50 worked out at 10.7 ± 1.5 µg/mL (≈ 19.7 µM).

`C=C1C(=O)O[C@H]2/C=C(\C)C[C@@H]3C=C(CCC4OC4(C)CC[C@H]12)C(=O)O3` (stereo partly drawn) [Ova-Oxy]: the CC50 was determined as 32 ± 0.8 µg/mL (≈ 92.9 µM).

With `C/C1=C\CCC2=C[C@@H](C/C(C)=C/[C@@H]3OC(=O)C(CSCCO)[C@H]3CC1)OC2=O` (stereo partly drawn) [Ova-ST2], the CC50 is over 100 µg/mL.

The record behind these values is patent publication US20250360100A1, “ANTI-CANCER DERIVATIVES OF OVATODIOLIDE AND USE THEREOF” (ARJIL BIOTECH HOLDING COMPANY LIMITED, priority 2024, published 2025).
